Patent publication US20070292386A9, “Vaccine formulations for intradermal delivery comprising adjuvants and antigenic agents” (priority 2004, published 2007)
Ends that are not written are not given here.

B1: IL-7: cytokine interleukin-7 (protein, UniProt P13232 26-177, looked up)
Interleukin-7: DCDIEGKDGKQYESVLMVSIDQLLDSMKEIGSNCLNNEFNFFKRHICDANKEGMFLFRAARKLRQFLKMNSTGDFDLHLLKVSEGTTILLNCTGQVKGRKPAALGEAQPTKSLEENKSLKEQKKLNDLCFLKRLLQEIKTCWNKILMGTKEH
B2: IL-12: heterodimeric cytokine interleukin-12 (protein, UniProt P29459 23-219; P29460 23-328, looked up)
Interleukin-12 subunit alpha: RNLPVATPDPGMFPCLHHSQNLLRAVSNMLQKARQTLEFYPCTSEEIDHEDITKDKTSTVEACLPLELTKNESCLNSRETSFITNGSCLASRKTSFMMALCLSSIYEDLKMYQVEFKTMNAKLLMDPKRQIFLDQNMLAVIDELMQALNFNSETVPQKSSLEEPDFYKTKIKLCILLHAFRIRAVTIDRVMSYLNAS
Interleukin-12 subunit beta: IWELKKDVYVVELDWYPDAPGEMVVLTCDTPEEDGITWTLDQSSEVLGSGKTLTIQVKEFGDAGQYTCHKGGEVLSHSLLLLHKKEDGIWSTDILKDQKEPKNKTFLRCEAKNYSGRFTCWWLTTISTDLTFSVKSSRGSSDPQGVTCGAATLSAERVRGDNKEYEYSVECQEDSACPAAEESLPIEVMVDAVHKLKYENYTSSFFIRDIIKPDPPKNLQLKPLKNSRQVEVSWEYPDTWSTPHSYFSLTFCVQVQGKSKREKKDRVFTDKTSATVICRKNASISVRAQDRYYSSSWSEWASVPCS

test system: influenza antigen (Influenza APR834); format: in vivo; design: key: greater immune response (as indicated by X) as compared to the inoculums that contained Fluzone alone, or the non-immune inoculums; conditions: adjuvant with Fluzone, intradermal, Balb/c mice, one immunization, sera 21 days, vs Fluzone alone

| Molecule | Increased Immune Response, Fluzone |
| --- | --- |
| VGVAPG [Elastin Repeating Peptide, mammalian peptide adjuvant] | X |
| Tyr-Leu-Glu-Pro-Gly-Pro-Val-Thr-Ala [Melanonin Peptide 946] | X |
| IL-6: cytokine interleukin 6 | X |
| Interferon-gamma: cytokine, interferon produced by lymphocytes | X |
| N-formyl-NIe Leu-Phe-NIe-Tyr-Lys [Neutrophil Chemo-attractant Peptide] | X |
| B1 | X |
| B2 | X |
